The values below come from patent US6887983B2, “Purified 20 kDA presenilin 2 C-terminal fragment and methods of screening for compounds that inhibit proteolysis of presenilin 2” (The General Hospital Corporation, priority 1997, dated 2005).

Where a SMILES comes first, the peptide text is derived from it. The star is where a group is joined. Cbz = O=C(OCc1ccccc1)*; CH2F = FC*

Experiment [1] concerns full-length 54 kDa PS2 cleavage. As to the kind of experiment: Cleavage of full-length PS2 during etoposide-induced apoptosis in inducible H4 cells (N-terminal FLAG PS2). To be noted: increasing concentrations of inhibitor, 20 μM etoposide; FIG. 8. Format: cell-based, human. The protocol: FIG. 8. Cleavage of full-length 54 kDa PS2 by a zVAD-sensitive protease activated during etoposide-induced apoptosis. Inducible H4 cells expressing PS2 containing N-terminal FLAG epitope were induced for 12 hours and further incubated with media containing 20 μM etoposide. Alternative (34 kDa NTF) and normal (f; 30 kDa) N-terminal cleavage products detected by anti-FLAG antibody and alternative (20K CTF) and endogenous plus normal C-terminal cleavage products (e/f) detected by αPS2Loop were indicated by arrows.
Thus, whether the alternative PS2-CTF was generated from full-length 54 kDa PS2 during apoptosis was tested. […] The alternative NTF was 34 kDa while the “normal” NTF, labeled as band f in the top panel of FIG. 8, was 30 kDa. The alternative PS2 cleavage fragments were first observed at 3 hours post-treatment with etoposide.

Experiment [2] deals with generation of alternative 14 kDa PS1-CTF. Put plainly: Generation of alternative 14 kDa PS1-CTF in inducible H4 cells overexpressing PS1. To be noted: PS1-overexpressing cell lines. Format: cell-based, human. The protocol:
FIG. 11. […] Inducible PS1 cells were generated similar to as described herein. High-(clone 1.22) and low-(clone 1.24) expressing clones were grown in the presence or absence of tetracycline for 24 hours. As similar to those shown for PS2, multiple PS1 CTFs were detected in the PS 1-overproducing cells, including 23 kDa endogenous PS1 CTF (arrow e′), transgene-derived normal cleavage product (arrow f′), and aberrant 14 kDa PS1 fragment. (b, c, d) Cleavage of endogenous PS1 CTF during STS-induced apoptosis. Identical samples used for FIG. 8 were stained with αPS1 Loop. PS1 CTF was further cleaved into smaller 14 kDa fragment during apoptotic process. […] Asterisk indicates non-specific bands.
The point mutations in the potential aspartate cleavage sites of PS2 (D326A and D329A) and control aspartate (D308A) were introduced into a PS2 open reading frame by site-directed mutagenesis using Muta-Gene phagemid kit (BioRad). The inducible construct encoding the full-length PS1 with 3′ FLAG epitope sequence was generated as described for PS2 herein. […]
Next, whether PS1, a closely related homologue of PS2, also undergoes alternative cleavage when overexpressed and/or during apoptosis was tested. […] However, in the clonal cell line expressing lower levels of PS1 (clone IF24), full-length PS1 and the normal CTF were predominantly detected while the alternative 14 kDa CTF fragment was not detectable.

For a further experiment, the system named is endogenous PS1 cleavage. Put plainly: Apoptosis-associated cleavage of endogenous PS1 in H4 cells. To be noted: STS- or etoposide-induced, FIGS. 11c and 11d. Format: cell-based, human. The protocol: FIG. 11. […] Inducible PS1 cells were generated similar to as described herein. High-(clone 1.22) and low-(clone 1.24) expressing clones were grown in the presence or absence of tetracycline for 24 hours. […] Identical samples used for FIG. 8 were stained with αPS1 Loop. […] Asterisk indicates non-specific bands.
Whether endogenous PS1 is cleaved by CP32-like proteases following induction of apoptosis was also tested.

Experiment [3] relates to generation of the 20 kDa PS2-CTF. As to the kind of experiment: Generation of 20 kDa PS2-CTF in H4 cells overexpressing PS2, Western blot with αPS2Loop. To be noted: FIG. 7d; for generation of the 20 kDa PS2-CTF: cells overexpressing PS2, induced 24 h, inhibitor added at induction. For orientation: A western blot detects proteins with antibodies after separation by electrophoresis.
Procedure: Aberrant 20 kDa PS2 C-terminal fragment (CTF) in transfected cells. (a) Detection of the endogenous PS2 CTF in human brain. […] (b) Detection of multiple PS2 CTFs in the inducible H4 cells overexpressing C-terminal epitope-tagged PS2 by Western blotting using αPS2Loop. […] (c) Selective localization of the 20 kDa CTF in the non-ionic detergent-resistant cellular fraction. Wild-type PS2 cells were induced for 48 hours, fractionated into detergent-insoluble/resistant (lane 2) and detergent soluble (lane 3) fractions and wash (lane 4), and then analyzed by Western blotting with αPS2Loop. Total SDS lysates are shown in lane 1. […] The zFA-fmk (cathepsin B inhibitor) was used as a control for fluoromethylketone (fmk) group. […] Inducible PS2 were grown in the presence (Uninduced, left panel) or absence (Induced, right panel) of tetracycline for 24 hours, and inhibitors or solvent (DMSO) were added at the time of the induction.
(§2) For some experiments, protein quantitation, SDS-PAGE (4-20% or 16%) and Western blotting were carried out as described, supra, with the exception of using the lysis buffer (10 mM Tris-HCl [pH 7.4], 150 mM NaCl, 1% Triton X-100, 0.5% NP-40, 5 mM EDTA plus either 0.3% SDS or 1% Sarkosyl) with protease inhibitors, allowing for the efficient extraction of the 20 kDa C-terminal fragment from the detergent-resistant fractions.

The subject of experiment [4] is endogenous PS2 cleavage in H4 human neuroglioma cells. Put plainly: Apoptotic cleavage of endogenous PS2 in untransfected H4 cells (staurosporine or etoposide), Western blot.
Procedure: H4 human neuroglioma cells were treated with 1 μM STS for timed intervals indicated on the top panels and lysates were analyzed by Western blotting using αPS2Loop along with antibodies to poly(ADP-ribose) polymerase (PARP), CPP32, and HSP70. […] Cells were pre-treated with inhibitors for 1 hour, further incubated in the presence or absence of 2 μM STS (b) or 20 μM etoposide for 18 hours. and lysates were analyzed by Western blotting. […] (e) Dose-response curves of the effect of zVAD-fmk (Δ) and zDEVD-fmk (o) on STS-induced apoptotic cleavage of PS2. Relative amounts of 20 kDa PS2 fragments from the cells co-treated with 1 μM STS (18 hours) plus either zVAD-fmk or zDEVD-fmk were measured by the transmittance analysis of the Western blot as described (Bush, A. I., et al., Ann. Neurol. 32:57-65 (1992)). The amounts of 20 kDa fragment from the cells treated with STS alone were standardized as 100%. With the exception of (d) (4-20% gradient gel), all SDS-PAGE were performed using 16% gels.
as §2
Another experiment deals with polyubiquitinated PS2. Put plainly: Immunoprecipitation of ubiquitin-positive HMW-PS2 with anti-FLAG, anti-ubiquitin immunoblot. The class given is cell-based, human. To be noted: 50 μM ALLN; C-terminal FLAG PS2; FIG. 5B. The protocol: (§1) FIG. 5. Polyubiquitination and proteasomal degradation of PS2. […] Detergent-soluble (Soluble) and detergent-resistant fractions (Insoluble) were prepared and analyzed by Western blotting. FIG. 5B) immunoprecipitation of ubiquitin-positive high molecular weight forms of PS2 (HMW-PS2) by anti-FLAG antibodies. […] FIG. SC) binding of PS2 modified with epitope-tagged ubiquitin (H6M-Ub) to nickel affinity columns. Plasmid pCW7 encoding wild-type (H6M-Ub) or pCW8 encoding dominant-negative ubiquitin (H6M-UbK48R) was transiently transfected into uninduced PS2 cells (clone WF2). […] Lysates were subjected to nickel affinity chromatography as described herein and bound materials were analyzed by Western blotting using anti-PS2Loop antibodies.
Protein samples were quantiated by the BCA protein assay kit (Pierce). SDS-PAGE was carried out using 4-20% gradient Tris-glycine gels under reducing conditions. Proteins were transferred to polyvinylidene difluoride membrane (Bio-Rad) using a semi-dry electrotransfer system (Hoefer). The blots were blocked with 5% non-fat dry milk in TBST (25 mM Tris (pH 7.6), 137 mM NaCl, 0.15% Tween 20) for 1.5 h, incbated primary antibodies (M2, 3 μg/ml; D-8, 1 to 1000; polyclonal anti-ubiquitin, 1 to 1000; Ubi-1, 1 to 1500) for 1.5 h, and secondary antibodies (horseradish perodixase-conjugated anti-mouse or rabbit antibodies, 1 to 5000) in TBST. […]

The subject of experiment [5] is polyubiquitinated HMW-PS2. Put plainly: Nickel affinity chromatography of PS2 modified with His-tagged ubiquitin, anti-PS2Loop blot. To be noted: induced cells treated with ALLN. Format: cell-based, human. The protocol: as §1
PS2 cells were transiently transfected with ubiquitin constructs either pCW7 (H6M-Ub) or pCW8 (H6M-UbK48R) using LipofectAMINE™ according to the manufacturer's instruction (LifeTtechnologies, Inc.). […] Samples were concentrated by freeze-drying, and PS2 immunoreactivity was detected by Western blotting using anti-PS2Loop antibodies.
To determine whether polyubiquitinated HMW-PS2 serves as a degradation intermediate for the full-length PS2, constructs encoding wild-type (H6M-Ub) and dominant-negative ubiquitin (H6M-UbK48R), tagged with poly((6X)-histidine) were transiently transfected into uninduced cells. […]

As for `COC(=O)C[C@H](NC(=O)[C@H](C)NC(=O)[C@@H](NC(=O)OCc1ccccc1)C(C)C)C(=O)CF` [zVAD-fmk] (Cbz-Val-Ala-Asp(OMe)-CH2F), the “generation of both alternative PS2 cleavage products” value in experiment [1] is recorded as “inhibited the generation of both alternative cleavage products”. Moreover, the “generation of alternative 14 kDa PS1-CTF” value in experiment [2] is “blocked”. Further, the “apoptosis-associated cleavage of endogenous PS1” value with endogenous PS1 cleavage was “Inhibition of STS-induced (c) and etoposide-induced (d) PS1 cleavage”; with endogenous PS1 cleavage (listed as zVAD), “blocked”. Moreover, the “generation of the 20 kDa PS2-CTF” value in experiment [3] was “blocked”; in experiment [3] (listed as zVAD) it was “blocked the generation of the 20 kDa PS2-CTF”. Further, the “levels of the endogenous 25 kDa CTF, the 26 kDa transgene-derived CTF, or other PS2 species” value in experiment [3] (cells overexpressing PS2) is recorded as “no effect”. In addition, in experiment [4] (1 μM STS 18 h, relative amount of 20 kDa fragment, FIG. 9e), the “concentration equally effective in inhibiting apoptosis-induced cleavage of PS2” value amounted to 25 µM. The “normal processing of PS2 (generation of 25 kDa endogenous fragment)” value in experiment [4] (H4 cells undergoing apoptosis) was “no effect on normal processing of PS2”. Also, the “STS-induced or etoposide-induced cleavage of PS2, PARP, and pro-CPP32” value in experiment [4] (H4 cells, 2 μM STS or 20 μM etoposide 18 h, FIG. 9b, c) is “Inhibition of STS-induced (b) or etoposide-induced (c) cleavage of PS2, PARP, and pro-CPP32”. In experiment [4] (H4 cells, inhibitor pre-treatment 1 h, 2 μM STS or 20 μM etoposide 18 h, FIGS. 9b-9d), the “alternative cleavage of endogenous PS2 during staurosporine-induced or etoposide-induced apoptosis” value is “specifically blocked”.

In the case of “N-acetyl-L-leucinal-L-norleucinal [ALLN]”, the “Ubiquitin-positive HMW-PS2” value in the experiment on polyubiquitinated PS2 is listed as “significantly increased”. Besides, the “polyubiquitinated HMW-PS2 bound to nickel column” value is given as “abundant amounts of polyubiquitinated HMW-PS2” in experiment [5] (transfected with H6M-Ub, FIG. 5C lane 10) and “a small amount of polyubiquitinated HMW-PS2” in experiment [5] (transfected with dominant-negative H6M-UbK48R, FIG. 5C lane 12).
